Test results as given in PMC11124822, “Discovery and Anticancer Screening of Novel Oxindole-Based Derivative Bearing Pyridyl Group as Potent and Selective Dual FLT3/CDK2 Kinase Inhibitor” (Pharmaceuticals, 2024).

Key:
HCT-116 = assay: NCI-60 antiproliferative screen (SRB); format: cell-based, human; details: Homo sapiens; 10 µM single dose, 48 h; HCT-116 (Colon); read-out: Growth inhibition (%)
MDA-MB-468 = assay: NCI-60 antiproliferative screen (SRB); format: cell-based, human; details: Homo sapiens; 10 µM single dose, 48 h; MDA-MB-468 (Breast); read-out: Growth inhibition (%)
A549/ATCC = assay: NCI-60 antiproliferative screen (SRB); format: cell-based, human; details: Homo sapiens; 10 µM single dose, 48 h; A549/ATCC (NSCLC); read-out: Growth inhibition (%)
RXF 393 = assay: NCI-60 antiproliferative screen (SRB); format: cell-based, human; details: Homo sapiens; 10 µM single dose, 48 h; RXF 393 (Renal); read-out: Growth inhibition (%)
MOLT-4 = assay: NCI-60 antiproliferative screen (SRB); format: cell-based; details: Homo sapiens; 10 µM single dose, 48 h; MOLT-4 (Leukemia); read-out: Growth inhibition (%)
HOP-62 = assay: NCI-60 antiproliferative screen (SRB); format: cell-based, human; details: Homo sapiens; 10 µM single dose, 48 h; HOP-62 (NSCLC); read-out: Growth inhibition (%)
[1] = test system: NCI-60 human cancer cell lines; assay: NCI-60 screen, full panel summary; format: cell-based; details: 10 µM single dose
Description: In a comprehensive test, compounds were assayed at a single dose concentration (10^−5 M) in the full panel of NCI-60 cancer cell lines.

SF-295 = assay: NCI-60 antiproliferative screen (SRB); format: cell-based, human; details: Homo sapiens; 10 µM single dose, 48 h; SF-295 (CNS); read-out: Growth inhibition (%)
CAKI-1 = assay: NCI-60 antiproliferative screen (SRB); format: cell-based, human; details: Homo sapiens; 10 µM single dose, 48 h; CAKI-1 (Renal); read-out: Growth inhibition (%)
SK-MEL-5 = assay: NCI-60 antiproliferative screen (SRB); format: cell-based, human; details: Homo sapiens; 10 µM single dose, 48 h; SK-MEL-5 (Melanoma); read-out: Growth inhibition (%)
SNB-19 = assay: NCI-60 antiproliferative screen (SRB); format: cell-based, human; details: Homo sapiens; 10 µM single dose, 48 h; SNB-19 (CNS); read-out: Growth inhibition (%)
TK-10 = assay: NCI-60 antiproliferative screen (SRB); format: cell-based, human; details: Homo sapiens; 10 µM single dose, 48 h; TK-10 (Renal); read-out: Growth inhibition (%)
LOX IMVI = assay: NCI-60 antiproliferative screen (SRB); format: cell-based, human; details: Homo sapiens; 10 µM single dose, 48 h; LOX IMVI (Melanoma); read-out: Growth inhibition (%)
CCRF-CEM = assay: NCI-60 antiproliferative screen (SRB); format: cell-based, human; details: Homo sapiens; 10 µM single dose, 48 h; CCRF-CEM (Leukemia); read-out: Growth inhibition (%)
MDA-MB-231 = assay: NCI-60 antiproliferative screen (SRB); format: cell-based, human; details: Homo sapiens; 10 µM single dose, 48 h; MDA-MB-231 (Breast); read-out: Growth inhibition (%)
T-47D = assay: NCI-60 antiproliferative screen (SRB); format: cell-based, human; details: Homo sapiens, T47D; 10 µM single dose, 48 h; T-47D (Breast); read-out: Growth inhibition (%)
SK-MEL-28 = assay: NCI-60 antiproliferative screen (SRB); format: cell-based, human; details: Homo sapiens; 10 µM single dose, 48 h; SK-MEL-28 (Melanoma); read-out: Growth inhibition (%)
PC-3 = assay: NCI-60 antiproliferative screen (SRB); format: cell-based, human; details: Homo sapiens; 10 µM single dose, 48 h; PC-3 (Prostate); read-out: Growth inhibition (%)
SK-OV-3 = assay: NCI-60 antiproliferative screen (SRB); format: cell-based, human; details: Homo sapiens; 10 µM single dose, 48 h; SK-OV-3 (Ovarian); read-out: Growth inhibition (%)
KM12 = assay: NCI-60 antiproliferative screen (SRB); format: cell-based, human; details: Homo sapiens; 10 µM single dose, 48 h; KM12 (Colon); read-out: Growth inhibition (%)
U251 = assay: NCI-60 antiproliferative screen (SRB); format: cell-based, human; details: Homo sapiens, U-251; 10 µM single dose, 48 h; U251 (CNS); read-out: Growth inhibition (%)
HOP-92 = assay: NCI-60 antiproliferative screen (SRB); format: cell-based, human; details: Homo sapiens; 10 µM single dose, 48 h; HOP-92 (NSCLC); read-out: Growth inhibition (%)
EKVX = assay: NCI-60 antiproliferative screen (SRB); format: cell-based, human; details: Homo sapiens; 10 µM single dose, 48 h; EKVX (NSCLC); read-out: Growth inhibition (%)
OVCAR-8 = assay: NCI-60 antiproliferative screen (SRB); format: cell-based, human; details: Homo sapiens; 10 µM single dose, 48 h; OVCAR-8 (Ovarian); read-out: Growth inhibition (%)
NCI-H226 = assay: NCI-60 antiproliferative screen (SRB); format: cell-based, human; details: Homo sapiens; 10 µM single dose, 48 h; NCI-H226 (NSCLC); read-out: Growth inhibition (%)
HT29 = assay: NCI-60 antiproliferative screen (SRB); format: cell-based, human; details: Homo sapiens, HT-29; 10 µM single dose, 48 h; HT29 (Colon); read-out: Growth inhibition (%)
SN12C = assay: NCI-60 antiproliferative screen (SRB); format: cell-based, human; details: Homo sapiens; 10 µM single dose, 48 h; SN12C (Renal); read-out: Growth inhibition (%)

## O=C1Nc2ccccc2C1=Cc1ccc(OCc2cccnc2)cc1 (mixture of isomers) [Compound 5i, (E/Z)-3-[4-(Pyridin-3-ylmethoxy)benzylidene]indolin-2-one]
HCT-116
  inhibition at 10 µM: 56.5%
MDA-MB-468
  inhibition at 10 µM: 51.2%
A549/ATCC
  inhibition at 10 µM: 26.2%
RXF 393
  inhibition at 10 µM: 24.9%
MOLT-4
  inhibition at 10 µM: 70%
HOP-62
  inhibition at 10 µM: 37.2%
[1]
  Positive Cytostatic Effect (cell lines with percent growth from 0 to 50 / total number of cell lines): 17/56
  Positive Cytotoxic Effect (cell lines with percent growth of <0 / total number of cell lines): 0/56
  Sensitive/Total Cell Lines: 17/56
  The Most Sensitive Cell Line: KM12
[1]; all NCI-60 cell lines
  Mean Growth Percent: 34.95
SF-295
  inhibition at 10 µM: 31.2%
CAKI-1
  inhibition at 10 µM: 56.7%
SK-MEL-5
  inhibition at 10 µM: 59.4%
SNB-19
  inhibition at 10 µM: 37.1%
TK-10
  inhibition at 10 µM: -15.7%
LOX IMVI
  inhibition at 10 µM: 55%
CCRF-CEM
  inhibition at 10 µM: 52.4%
MDA-MB-231
  inhibition at 10 µM: 35.4%
T-47D
  inhibition at 10 µM: 51%
SK-MEL-28
  inhibition at 10 µM: -2.65%
PC-3
  inhibition at 10 µM: 29.8%
SK-OV-3
  inhibition at 10 µM: 13.2%
KM12
  inhibition at 10 µM: 87.4%
U251
  inhibition at 10 µM: 53.2%
HOP-92
  inhibition at 10 µM: 35.4%
EKVX
  inhibition at 10 µM: 31.7%
OVCAR-8
  inhibition at 10 µM: 47.2%
NCI-H226
  inhibition at 10 µM: 38.2%
HT29
  inhibition at 10 µM: 32.7%
SN12C
  inhibition at 10 µM: 27.1%
